# Data from ChEMBL document CHEMBL3885881, “DrugMatrix”.
# Organism: Rattus norvegicus
# Assay: DrugMatrix - Regimen: Daily Repeat
# Format: toxicity, organism-based, Sprague-Dawley
# Set-up: regimen Daily Repeat, gender Male, age 6-8 weeks
# Details: in vivo, po, route oral GAVAGE, vehicle 100 % SALINE; for TOTAL BILIRUBIN / URIC ACID / ALANINE AMINOTRANSFERASE / ALBUMIN / ALKALINE PHOSPHATASE / ASPARTATE AMINOTRANSFERASE / BLOOD UREA NITROGEN / CARBON DIOXIDE / CHLORIDE / CHOLESTEROL / CREATINE PHOSPHOKINASE / CREATININE / GLUCOSE / LIPASE / PHOSPHORUS / POTASSIUM / SODIUM / TOTAL PROTEIN: tissue Plasma; for ABSOLUTE BASOPHIL / ABSOLUTE EOSINOPHIL / ABSOLUTE LYMPHOCYTE / ABSOLUTE MONOCYTE / BASOPHIL / EOSINOPHIL / ERYTHROCYTE COUNT / HEMATOCRIT / HEMOGLOBIN / LEUKOCYTE COUNT / LYMPHOCYTE / MEAN CORPUSCULAR HEMOGLOBIN / MEAN CORPUSCULAR HEMOGLOBIN CONCENTRATION / MEAN CORPUSCULAR VOLUME / MONOCYTE / NEUTROPHIL / PLATELET COUNT: tissue Blood
# [1] = 0 mg/kg, 120 h, dose level Control, time 5 day
# [2] = 0 mg/kg, […], dose level Control, time 14 day
# [3] = 2 mg/kg, 72 h, dose level High, time 3 day
# [4] = 2 mg/kg, 120 h, dose level High, time 5 day
# [5] = 2 mg/kg, […], dose level High, time 14 day
compound,measurement,setting,value
COc1cccc2c1C(=O)c1c(O)c3c(c(O)c1C2=O)C[C@@](O)(C(C)=O)C[C@@H]3O[C@H]1C[C@H](N)[C@H](O)[C@H](C)O1 [DAUNORUBICIN],TOTAL BILIRUBIN,[1],0.37 mg/dL
same,URIC ACID,[1],0.97 mg/dL
same,ABSOLUTE BASOPHIL,[2],93.3 cells/µL
same,ABSOLUTE EOSINOPHIL,[2],80 cells/µL
same,ABSOLUTE LYMPHOCYTE,[2],6890 cells/µL
same,ABSOLUTE MONOCYTE,[2],170 cells/µL
same,BASOPHIL,[2],1%
same,EOSINOPHIL,[2],0.83%
same,ERYTHROCYTE COUNT,[2],7.03 x10E6/uL
same,HEMATOCRIT,[2],43.4%
same,HEMOGLOBIN,[2],14.83 G/DL
same,LEUKOCYTE COUNT,[2],8.94 x10E3/uL
same,LYMPHOCYTE,[2],77.93%
same,MEAN CORPUSCULAR HEMOGLOBIN,[2],21.1 pg
same,MEAN CORPUSCULAR HEMOGLOBIN CONCENTRATION,[2],34.17 G/DL
same,MEAN CORPUSCULAR VOLUME,[2],61.77 fL
same,MONOCYTE,[2],1.33%
same,NEUTROPHIL,[2],18%
same,PLATELET COUNT,[2],1097.33 x10E3/uL
same,ALANINE AMINOTRANSFERASE,[2],32 u/L
same,ALBUMIN,[2],3.83 G/DL
same,ALKALINE PHOSPHATASE,[2],334.67 u/L
same,ASPARTATE AMINOTRANSFERASE,[2],69.33 u/L
same,BLOOD UREA NITROGEN,[2],16 mg/dL
same,CARBON DIOXIDE,[2],40 mmol/L
same,CHLORIDE,[2],105.67 MEQ/L
same,CHOLESTEROL,[2],70.33 mg/dL
same,CREATINE PHOSPHOKINASE,[2],144.67 u/L
same,CREATININE,[2],0.3 mg/dL
same,GLUCOSE,[2],177.67 mg/dL
same,LIPASE,[2],16.33 u/L
same,PHOSPHORUS,[2],10.83 mg/dL
same,POTASSIUM,[2],5.77 MEQ/L
same,SODIUM,[2],143.33 MEQ/L
same,TOTAL BILIRUBIN,[2],0.33 mg/dL
same,TOTAL PROTEIN,[2],6.37 G/DL
same,URIC ACID,[2],0.17 mg/dL
same,ABSOLUTE BASOPHIL,[3],110 cells/µL
same,ABSOLUTE EOSINOPHIL,[3],210 cells/µL
same,ABSOLUTE LYMPHOCYTE,[3],7080 cells/µL
same,ABSOLUTE MONOCYTE,[3],140 cells/µL
same,BASOPHIL,[3],1.17%
same,EOSINOPHIL,[3],2.47%
same,ERYTHROCYTE COUNT,[3],6.67 x10E6/uL
same,HEMATOCRIT,[3],42.37%
same,HEMOGLOBIN,[3],13.97 G/DL
same,LEUKOCYTE COUNT,[3],8.7 x10E3/uL
same,LYMPHOCYTE,[3],80.87%
same,MEAN CORPUSCULAR HEMOGLOBIN,[3],20.97 pg
same,MEAN CORPUSCULAR HEMOGLOBIN CONCENTRATION,[3],33 G/DL
same,MEAN CORPUSCULAR VOLUME,[3],63.57 fL
same,MONOCYTE,[3],1.7%
same,NEUTROPHIL,[3],13.37%
same,PLATELET COUNT,[3],1161.67 x10E3/uL
same,ALANINE AMINOTRANSFERASE,[3],34 u/L
same,ALBUMIN,[3],3.9 G/DL
same,ALKALINE PHOSPHATASE,[3],354 u/L
same,ASPARTATE AMINOTRANSFERASE,[3],68 u/L
same,BLOOD UREA NITROGEN,[3],16.67 mg/dL
same,CARBON DIOXIDE,[3],36 mmol/L
same,CHLORIDE,[3],104 MEQ/L
same,CHOLESTEROL,[3],67.67 mg/dL
same,CREATINE PHOSPHOKINASE,[3],219 u/L
same,CREATININE,[3],0.4 mg/dL
same,GLUCOSE,[3],175 mg/dL
same,LIPASE,[3],11 u/L
same,PHOSPHORUS,[3],12.2 mg/dL
same,POTASSIUM,[3],6.47 MEQ/L
same,SODIUM,[3],142.67 MEQ/L
same,TOTAL BILIRUBIN,[3],0.37 mg/dL
same,TOTAL PROTEIN,[3],6.43 G/DL
same,URIC ACID,[3],1.17 mg/dL
same,ABSOLUTE BASOPHIL,[4],75 cells/µL
same,ABSOLUTE EOSINOPHIL,[4],40 cells/µL
same,ABSOLUTE LYMPHOCYTE,[4],7990 cells/µL
same,ABSOLUTE MONOCYTE,[4],140 cells/µL
same,BASOPHIL,[4],0.9%
same,EOSINOPHIL,[4],0.5%
same,ERYTHROCYTE COUNT,[4],6.82 x10E6/uL
same,HEMATOCRIT,[4],42.9%
same,HEMOGLOBIN,[4],13.75 G/DL
same,LEUKOCYTE COUNT,[4],9.39 x10E3/uL
same,LYMPHOCYTE,[4],84.25%
same,MEAN CORPUSCULAR HEMOGLOBIN,[4],20.2 pg
same,MEAN CORPUSCULAR HEMOGLOBIN CONCENTRATION,[4],32.15 G/DL
same,MEAN CORPUSCULAR VOLUME,[4],62.9 fL
same,MONOCYTE,[4],1.5%
same,NEUTROPHIL,[4],12.5%
same,PLATELET COUNT,[4],1293.5 x10E3/uL
same,ALANINE AMINOTRANSFERASE,[4],27.67 u/L
same,ALBUMIN,[4],3.93 G/DL
same,ALKALINE PHOSPHATASE,[4],361.67 u/L
same,ASPARTATE AMINOTRANSFERASE,[4],66 u/L
same,BLOOD UREA NITROGEN,[4],14.67 mg/dL
same,CARBON DIOXIDE,[4],35 mmol/L
same,CHLORIDE,[4],106.67 MEQ/L
same,CHOLESTEROL,[4],68.67 mg/dL
same,CREATINE PHOSPHOKINASE,[4],274.67 u/L
same,CREATININE,[4],0.4 mg/dL
same,GLUCOSE,[4],192.33 mg/dL
same,LIPASE,[4],9 u/L
same,PHOSPHORUS,[4],11.87 mg/dL
same,POTASSIUM,[4],6.67 MEQ/L
same,SODIUM,[4],146 MEQ/L
same,TOTAL BILIRUBIN,[4],0.37 mg/dL
same,TOTAL PROTEIN,[4],6.33 G/DL
same,URIC ACID,[4],1.37 mg/dL
same,ABSOLUTE BASOPHIL,[5],120 cells/µL
same,ABSOLUTE EOSINOPHIL,[5],74 cells/µL
same,ABSOLUTE LYMPHOCYTE,[5],8830 cells/µL
same,ABSOLUTE MONOCYTE,[5],250 cells/µL
same,BASOPHIL,[5],1.1%
same,EOSINOPHIL,[5],0.66%
same,ERYTHROCYTE COUNT,[5],7.41 x10E6/uL
same,HEMATOCRIT,[5],45.06%
same,HEMOGLOBIN,[5],15.1 G/DL
same,LEUKOCYTE COUNT,[5],11 x10E3/uL
same,LYMPHOCYTE,[5],80.4%
same,MEAN CORPUSCULAR HEMOGLOBIN,[5],20.36 pg
same,MEAN CORPUSCULAR HEMOGLOBIN CONCENTRATION,[5],33.46 G/DL
same,MEAN CORPUSCULAR VOLUME,[5],60.78 fL
same,MONOCYTE,[5],2%
same,NEUTROPHIL,[5],15.02%
same,PLATELET COUNT,[5],1090.8 x10E3/uL
same,ALANINE AMINOTRANSFERASE,[5],31.8 u/L
same,ALBUMIN,[5],3.88 G/DL
same,ALKALINE PHOSPHATASE,[5],326.6 u/L
same,ASPARTATE AMINOTRANSFERASE,[5],64.8 u/L
same,BLOOD UREA NITROGEN,[5],16.6 mg/dL
same,CARBON DIOXIDE,[5],42.4 mmol/L
same,CHLORIDE,[5],106 MEQ/L
same,CHOLESTEROL,[5],66.4 mg/dL
same,CREATINE PHOSPHOKINASE,[5],203 u/L
same,CREATININE,[5],0.4 mg/dL
same,GLUCOSE,[5],167.6 mg/dL
same,LIPASE,[5],12.4 u/L
same,PHOSPHORUS,[5],9.42 mg/dL
same,POTASSIUM,[5],6.3 MEQ/L
same,SODIUM,[5],144.4 MEQ/L
same,TOTAL BILIRUBIN,[5],0.4 mg/dL
same,TOTAL PROTEIN,[5],6.36 G/DL
same,URIC ACID,[5],0.04 mg/dL
